Broadly, the viability, T/C is the result in the treated group divided by that in the control group, in per cent.

“And” between values parts separate entries of the source, which are not always exact repeats. Equal entries are not always repeated.

Here are results for 18 compounds from PubChem BioAssay AID1918991 (Molecular Pharmacology Branch, DTP, NCI, 2023).
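Also: luminescent signal used as a stand-in for viable cell amount; spheroids exposed to compounds for seven days before the viability read; 100% = DMSO vehicle control wells.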

In the first assay the test system is 186277-243-T-J2-PDC complex spheroid growth. The assay can be described thus: Anticancer human tumor 186277-243-T-J2-PDC patient-derived colon adenocarcinoma cell line growth inhibition [AhR]. The following applies: compound 0.0316 µM; stronger effect = lower value. The source says: Multicellular complex tumor spheroid response to aryl hydrocarbon receptor antagonists in combination with a variety of drugs and investigational agents in selected tumor cell lines
The current study was undertaken to assess response to aryl hydrocarbon receptor antagonists in combination with standard-of-care drugs and investigational agents in solid tumor complex spheroid models. Complex spheroids include a stromal component modeled by human endothelial cells (HUVEC) and fibroblasts modeled by human mesenchymal stem cells (MSCs). The concentration ranges selected for each drug and investigational agent were based upon clinically achievable concentrations if the clinical Cmax of the agent was known.
Compounds. The drugs and investigational agents: BAY 2416964 (NSC825713), GNF351 (NSC835774), CH-223191 (NSC835775), CPI-455 (NSC825282), aza-TdCyd (NSC777586), decitabine (NSC127716), belinostat (NSC758774), entinostat (NSC756642), pevonedistat (NSC761192), tazemetostat (NSC777109), talazoparib (NSC765396), olaparib (NSC753686), selinexor (NSC780203), nedisertib (M3814, NSC802822), bortezomib (NSC756655), venetoclax (NSC766270), doxorubicin (NSC123127), elimusertib (BAY189344, NSC800525), ceralasertib (AZD6738, NSC777638), TAK-243 (NSC785004), alisertib (NSC759677), etoposide (NSC141540), topotecan (NSC609699), eribulin (NSC707389), gemcitabine (NSC613327), carboplatin (NSC241240), cisplatin (NSC119875), and SN-38 (NSC673596) were obtained from the National Cancer Institute (NCI) Developmental Therapeutics Program Chemical Repository (32). The FDA-approved anticancer drug set is available from the Developmental Therapeutics Program at https://dtp.cancer.gov/organization/dscb/obtaining/available plates.htm. […] The stock solutions were prepared in dimethyl sulfoxide (DMSO, Sigma-Aldrich, St. Louis, MO, cat. D2650), except for the platinum compounds which were prepared in saline (Quality Biological, Gaithersburg, MD, cat. 114-055-101), at 800-fold the tested concentration and stored at -70 degrees C prior to their use. All drugs and investigational agents were tested over a range starting from a high concentration at or near the clinical Cmax and decreasing in half-log increments. If the clinical Cmax for an agent had not been determined, the highest concentration tested was 10 microM (Table 1).
Cell Culture. All cells were maintained in an incubator at 37 degrees C and 5% CO2 with 95% humidity. The PDC lines were cultured according to standard operating procedures established by the NCI PDMR (https://pdmr.cancer.gov). Briefly, all PDCs were thawed and cultured in Matrigel-coated flasks prepared with a working solution of 1X Ham's F-12 nutrient mix, without supplementation (Invitrogen, Waltham, MA, cat. 11765054), 100 U/mL penicillin-streptomycin (Invitrogen, cat. 15140122), and 2.5% Matrigel (Corning Inc., Corning, NY, cat. 354248) for the first three passages. All PDCs were cultured in complete DMEM/F-12 media containing advanced DMEM/F-12 (Invitrogen, cat. 12634028), 4.9% defined fetal bovine serum, heat inactivated (HyClone Laboratories Inc., Logan, UT, cat. SH30070.03HI), 389 ng/mL hydrocortisone (Sigma-Aldrich, cat. H4001), 9.7 ng/mL human EGF recombinant protein (Invitrogen, cat. PHG0313), 23.4 microg/mL adenine (Sigma-Aldrich, cat. A2786), 97.3 U/mL penicillin-streptomycin (Invitrogen, cat. 15140122), 1.9 mM L-glutamine (Invitrogen, cat. 25030081), and 9.7 microM Y-27632 dihydrochloride (Tocris Bioscience, Bristol, United Kingdom, cat. 1254). The PDCs were cultured in complete DMEM/F12 media without 10 microM Y-27632 dihydrochloride for at least two passages prior to the screen. The established cell lines NCI-H1341 and […] were cultured in DMEM/F-12, HEPES (Invitrogen, cat. 11330032), 5% defined fetal bovine serum (HyClone Laboratories Inc., cat. SH30070.03), ITS premix universal culture supplement [insulin (5 microg/mL), transferrin (5 microg/mL), and selenious acid (5 ng/mL)] […]
Turning to `COc1cc(C2c3cc4c(cc3C(OC3OC5COC(C)OC5C(O)C3O)C3COC(=O)C23)OCO4)cc(OC)c1O` (stereo unspecified), the viability, T/C is 97.2% and 86.2% and 92.7%.
Take `COc1cc(Nc2ncc3c(n2)-c2ccc(Cl)cc2C(c2c(F)cccc2OC)=NC3)ccc1C(=O)O`: the viability, T/C was 95.8% and 121% and 27.3%.
Same read-out and setting: for `COc1cccc2c1C(=O)c1c(O)c3c(c(O)c1C2=O)CC(O)(C(=O)CO)CC3OC1CC(N)C(O)C(C)O1` (stereo unspecified) the value was 111% and 154% and 44.9%; for `Cn1ncnc1C1c2n[nH]c(=O)c3cc(F)cc(c23)NC1c1ccc(F)cc1` (stereo unspecified), 99.6% and 119% and 78.8%; for `NS(=O)(=O)OCC1CC(n2ccc3c(NC4CCc5ccccc54)ncnc32)CC1O` (stereo unspecified), 89.3% and 94.6% and 101%.
On the same count and under the same terms, for `Nc1ccccc1NC(=O)c1ccc(CNC(=O)OCc2cccnc2)cc1` the value was 88.5% and 90.8% and 86.3%.
Take `Nc1ccn(C2OC(CO)C(O)C2(F)F)c(=O)n1` (stereo unspecified): the viability, T/C was 9.07% and 4.89% and 17.2%.
On to `Nc1ncn(C2CC(O)C(CO)O2)c(=O)n1` (stereo unspecified), for which the viability, T/C was 98.8% and 108% and 88.1%.
For `O=C(C=Cc1cccc(S(=O)(=O)Nc2ccccc2)c1)NO`, the viability, T/C is 96.8% and 107% and 99.7%.
Regarding `O=C(c1cc(Cc2n[nH]c(=O)c3ccccc23)ccc1F)N1CCN(C(=O)C2CC2)CC1`, the viability, T/C is 97.8% and 98% and 85.2%.

The assay is the same for the next values; noted with them: compound 0.0949 µM; stronger effect = lower value.
Take `CC(C)CC(NC(=O)C(Cc1ccccc1)NC(=O)c1cnccn1)B(O)O` (stereo unspecified): the viability, T/C was 0.17% and 1.7% and 0.16%.
With `CCN(c1cc(-c2ccc(CN3CCOCC3)cc2)cc(C(=O)NCc2c(C)cc(C)[nH]c2=O)c1C)C1CCOCC1`, the viability, T/C is 95.2% and 112% and 74.4%.
As for `CCc1c2c(nc3ccc(O)cc13)-c1cc3c(c(=O)n1C2)COC(=O)[C@]3(O)CC`, the viability, T/C is 29.7% and 43.6% and 10.7%.
For the compound `Nc1ncn(C2CC(O)C(CO)S2)c(=O)n1` (stereo unspecified), the viability, T/C is 128% and 116% and 60.8%.
Still for that read-out and setting: the value for `O=C(C=Cn1cnc(-c2cc(C(F)(F)F)cc(C(F)(F)F)c2)n1)NNc1cnccn1` was 102% and 91.8% and 41.7%.

The same assay, now with this note: compound 0.1 µM; stronger effect = lower value.
On to `CC1(C)CCC(CN2CCN(c3ccc(C(=O)NS(=O)(=O)c4ccc(NCC5CCOCC5)c([N+](=O)[O-])c4)c(Oc4cnc5[nH]ccc5c4)c3)CC2)=C(c2ccc(Cl)cc2)C1`, for which the viability, T/C was 99.3% and 105% and 95.2%.
On to `CC1COCCN1c1cc(C2(S(C)(=N)=O)CC2)nc(-c2ccnc3[nH]ccc23)n1` (stereo unspecified), for which the viability, T/C is 98% and 103% and 99%.
Take `CC[C@@]1(O)C(=O)OCc2c1cc1n(c2=O)Cc2cc3c(CN(C)C)c(O)ccc3nc2-1`: the viability, T/C is 65.8% and 19.4% and 111%.
Turning to `COc1cc(C2c3cc4c(cc3C(OC3OC5COC(C)OC5C(O)C3O)C3COC(=O)C23)OCO4)cc(OC)c1O` (stereo unspecified), the viability, T/C was 126% and 88.1% and 97.8%.
Still for that read-out and setting: for `COc1cc(Nc2ncc3c(n2)-c2ccc(Cl)cc2C(c2c(F)cccc2OC)=NC3)ccc1C(=O)O` the value was 83.4% and 121% and 22.3%; for `COc1cccc2c1C(=O)c1c(O)c3c(c(O)c1C2=O)CC(O)(C(=O)CO)CC3OC1CC(N)C(O)C(C)O1` (stereo unspecified), 74.9% and 144% and 30.5%.
On to `Cn1ncnc1C1c2n[nH]c(=O)c3cc(F)cc(c23)NC1c1ccc(F)cc1` (stereo unspecified), for which the viability, T/C was 110% and 114% and 69%.
Consider `NS(=O)(=O)OCC1CC(n2ccc3c(NC4CCc5ccccc54)ncnc32)CC1O` (stereo unspecified), for which the viability, T/C was 102% (2×) and 88.4%.
As to `Nc1ccccc1NC(=O)c1ccc(CNC(=O)OCc2cccnc2)cc1`, the viability, T/C is 93.2% and 91.9% and 87.4%.
For the compound `Nc1ccn(C2OC(CO)C(O)C2(F)F)c(=O)n1` (stereo unspecified), the viability, T/C was 8.27% and 4.63% and 16.2%.
Turning to `Nc1ncn(C2CC(O)C(CO)O2)c(=O)n1` (stereo unspecified), the viability, T/C is 114% and 107% and 76.6%.
Turning to `O=C(C=Cc1cccc(S(=O)(=O)Nc2ccccc2)c1)NO`, the viability, T/C was 93.5% and 112% and 84.1%.
On the same count and under the same terms, for `O=C(c1cc(Cc2n[nH]c(=O)c3ccccc23)ccc1F)N1CCN(C(=O)C2CC2)CC1` the value was 93.2% and 103% and 106%.

The same assay, now with this note: compound 0.3 µM; stronger effect = lower value.
As to `CC(C)CC(NC(=O)C(Cc1ccccc1)NC(=O)c1cnccn1)B(O)O` (stereo unspecified), the viability, T/C is 0.21% (2×) and 1.15%.
Turning to `CCN(c1cc(-c2ccc(CN3CCOCC3)cc2)cc(C(=O)NCc2c(C)cc(C)[nH]c2=O)c1C)C1CCOCC1`, the viability, T/C was 98.2% and 109% and 93.8%.
Take `CCc1c2c(nc3ccc(O)cc13)-c1cc3c(c(=O)n1C2)COC(=O)[C@]3(O)CC`: the viability, T/C is 15.3% and 26.9% and 7.34%.
